The values that follow come from patent US10059722B2, “Cephalosporin derivatives and methods of use” (priority 2012, dated 2018).

The test system of data set [1] is non-replicating M. tuberculosis. As to the kind of experiment: microbe, parasite or virus in culture. In kind it is cell-based, Mycobacterium tuberculosis. The following applies: Table 8, ranges from multiple assays; for MIC: Mycobacterium tuberculosis.
For data set [2], the system named is HepG2 cells. In kind it is cell-based. The procedure: Three lead compounds were identified in the first round of high throughput screening (700 compounds), which had minimal inhibitory concentrations (MIC) of 0.4-0.8 μg/mL after a six day exposure to drug (NRd6) in the model of non-replication at pH 5.0, and LD50's of 100 to >100 μg/mL against HepG2 cells (a 2 day exposure).
Furthermore, LD50 values were determined using a human hepatoma cell line (HepG2) using intracellular ATP levels as a measurement that correlated with cellular viability.

The mark [3] stands for this setting: read-out: MIC NR at 0.01 Inoc. and 3 Day Exposure to Drug, 7 Day Outgrowth.
[4] abbreviates: read-out: MIC NR at 0.01 Inoc. and 3 Day Exposure to Drug, 11 Day Outgrowth.

≈ marks a conversion by molar mass, not a printed value. Like-named read-outs stand apart in the source and are kept apart here.

`C#CCOC(=O)C1=C(C)CS[C@@H]2[C@H](NC(=O)CCc3ccc(OC)cc3)C(=O)N12` [Compound 94]: in data set [1], the “MIC NR at 0.01 Inoc. and 3 Day Exposure to Drug, 7 Day Outgrowth” value (“MIC NR … 7 Day Outgrowth” below) amounted to 0.78 mg/L (≈ 1.88 µM); the “MIC NR at 0.01 Inoc. and 3 Day Exposure to Drug, 11 Day Outgrowth” value (“MIC NR … 11 Day Outgrowth” for short) is 1.56 mg/L (≈ 3.76 µM). The “HepG2 Toxicity LD50” value in data set [2] (Table 8) was above 100 µg/mL.

As to `C#CCCC(=O)N[C@@H]1C(=O)N2C(C(=O)OCCC)=C(C)CS[C@H]12` [Compound 34], in data set [1], the “MIC NR … 7 Day Outgrowth” value was 1.56 mg/L (≈ 4.64 µM); the “MIC NR … 11 Day Outgrowth” value came out at 3.13 mg/L (≈ 9.3 µM). In addition, in data set [2] (Table 8), the “HepG2 Toxicity LD50” value was above 100 µg/mL.

With `C#CCOC(=O)C1=C(C)CS[C@@H]2[C@H](NC(=O)COc3ccc(OC)cc3)C(=O)N12` [Compound 85], in data set [1], the “MIC NR … 7 Day Outgrowth” value turned out to be 0.78 mg/L (≈ 1.87 µM); the “MIC NR … 11 Day Outgrowth” value was 1.56 mg/L (≈ 3.75 µM). Moreover, in data set [2] (Table 8), the “HepG2 Toxicity LD50” value was above 100 µg/mL.

As to `COc1ccc(OCC(=O)N[C@@H]2C(=O)N3C(C(=O)OCc4ccccc4)=C(C)CS[C@H]23)cc1` [Compound 103], the MIC in data set [1] (setting [3]) was 0.78 mg/L (≈ 1.66 µM); in data set [1] (setting [4]), 1.56 mg/L (≈ 3.33 µM). Further, in data set [2] (human, 2 day), the “HepG2 Toxicity LD50” value is above 100 µg/mL.

With `CCCOC(=O)C1=C(C)CS[C@@H]2[C@H](NC(=O)CCc3ccc(OC)cc3)C(=O)N12` [Compound 51], in data set [1], the “MIC NR … 7 Day Outgrowth” value is 0.10 mg/L (≈ 0.239 µM); the “MIC NR … 11 Day Outgrowth” value came out at 0.10 mg/L (≈ 0.239 µM).

Turning to `CCOC(=O)C1=C(C)CS[C@@H]2[C@H](NC(=O)COc3ccccc3)C(=O)N12` [Compound 40], in data set [1], the “MIC NR … 7 Day Outgrowth” value is 0.39 mg/L (≈ 1.04 µM); the “MIC NR … 11 Day Outgrowth” value amounted to 0.78 mg/L (≈ 2.07 µM). For the same molecule, the “HepG2 Toxicity LD50” value in data set [2] (Table 8) is above 100 µg/mL.

As to `CCOC(=O)C1=C(C)CS[C@@H]2[C@H](NC(=O)CCc3ccccc3)C(=O)N12` [Compound 49], in data set [1], the “MIC NR … 7 Day Outgrowth” value was 0.20 mg/L (≈ 0.534 µM); the “MIC NR … 11 Day Outgrowth” value was 0.39 mg/L (≈ 1.04 µM). Also, in data set [2] (Table 8), the “HepG2 Toxicity LD50” value was above 100 µg/mL.

For the molecule `CC1=C(C(=O)OCc2ccccc2)N2C(=O)[C@@H](NC(=O)COc3ccc(Cl)cc3)[C@H]2SC1` [Compound 102], the MIC in data set [1] (setting [3]) turned out to be 0.78 mg/L (≈ 1.65 µM); in data set [1] (setting [4]) it was 1.56 mg/L (≈ 3.3 µM). For the same molecule, the “HepG2 Toxicity LD50” value in data set [2] (human, 2 day) was above 100 µg/mL.

As for `C#CCOC(=O)C1=C(C)CS[C@@H]2[C@H](N(CC#C)CC#C)C(=O)N12` [Compound 106], the MIC came out at 12.5 mg/L (≈ 38.1 µM) in data set [1] (setting [3]) and 25 mg/L (≈ 76.1 µM) in data set [1] (setting [4]). The “HepG2 Toxicity LD50” value in data set [2] (human, 2 day) came to 100 µg/mL.

For `C#CCOC(=O)C1=C(C)CS[C@@H]2[C@H](NC(=O)COc3ccc(Cl)cc3)C(=O)N12` [Compound 88], in data set [1], the “MIC NR … 7 Day Outgrowth” value worked out at 0.78 mg/L (≈ 1.85 µM); the “MIC NR … 11 Day Outgrowth” value stood at 1.56 mg/L (≈ 3.71 µM). Also, in data set [2] (Table 8), the “HepG2 Toxicity LD50” value worked out at 100 µg/mL.

With `CCCOC(=O)C1=C(C)CS[C@@H]2[C@H](NC(=O)COc3ccc(OC)cc3)C(=O)N12` [Compound 42], in data set [1], the “MIC NR … 7 Day Outgrowth” value was found to be 0.20 mg/L (≈ 0.476 µM); the “MIC NR … 11 Day Outgrowth” value amounted to 0.39 mg/L (≈ 0.927 µM). In addition, the “HepG2 Toxicity LD50” value in data set [2] (Table 8) was above 100 µg/mL.

Regarding `C#CCOC(=O)N[C@@H]1C(=O)N2C(C(=O)OCC#C)=C(C)CS[C@H]12` [Compound 105], the MIC in data set [1] (setting [3]) is 6.25 mg/L (≈ 18.7 µM); in data set [1] (setting [4]), 12.5 mg/L (≈ 37.4 µM). In addition, the “HepG2 Toxicity LD50” value in data set [2] (human, 2 day) was above 100 µg/mL.

Regarding `CCOC(=O)C1=C(C)CS[C@@H]2[C@H](NC(=O)COc3ccc(OC)cc3)C(=O)N12` [Compound 43], in data set [1], the “MIC NR … 7 Day Outgrowth” value is 0.39 mg/L (≈ 0.96 µM); the “MIC NR … 11 Day Outgrowth” value amounted to 1.56 mg/L (≈ 3.84 µM). The “HepG2 Toxicity LD50” value in data set [2] (Table 8) is above 100 µg/mL.

Regarding `CCCOC(=O)C1=C(C)CS[C@@H]2[C@H](NC(=O)CCc3ccccc3)C(=O)N12` [Compound 48], in data set [1], the “MIC NR … 7 Day Outgrowth” value amounted to 0.10 mg/L (≈ 0.257 µM); the “MIC NR … 11 Day Outgrowth” value came to 0.20 mg/L (≈ 0.515 µM). In addition, the “HepG2 Toxicity LD50” value in data set [2] (Table 8) was above 100 µg/mL.
